Measured values: US4996235A, “3,4-diphenylbutanamines” (Eli Lilly and Company, priority 1987, dated 1991)
Counter-ions that a name gives are not always drawn.

Experiments:
[1] = system: 5HT uptake (rat cerebral cortex synaptosomes); assay: Synaptosomal uptake of 3H-serotonin (3H-5HT), inhibition in vitro; type: biochemical, Male Sprague-Dawley rats; conditions: rat cortical synaptosomes, 37° C., 5 min, 50 nM 3H-5HT
Experimental: (§1) This general procedure is set forth by Wong et al., in Drug Development Research 6:397-403 (1985).
(§2) Male Sprague-Dawley rats (110-150 g) from Harlan Industries (Cumberland, Ind.) were fed a Purina Chow ad libitum for at least 3 days before being used in the studies. Rats were killed by decapitation. Whole brains were removed and dissected. Cerebral cortex was homogenized in 9 volumes of a medium containing 0.32 M sucrose and 10 mM glucose. Crude synaptosomal preparations were isolated after differential centrifugation at 1,000 g for 10 min. and 17,000 g for 28 min. The final pellets were suspended in the same medium and kept in ice until use within the same day.
(§3) Synaptosomal uptake of ^3 H-serotonin(^3 H-5-hydroxytryptaine, ^3 H-5HT) and ^14 C-l-norepinephrine (^14 C-NE) was determined as follows. Cortical synaptosomes (equivalent to 1 mg of protein) were incubated at 37° C. for 5 min in 1 ml of Krebs-bicarbonate medium containing also 10 mM glucose, 0.1 mM iproniazid, 1 mM ascorbic acid, 0.17 mM EDTA, 50 nM ^3 H-5HT and 100 nM ^14 C-NE. The reaction mixture was immediately diluted with 2 ml of ice-chilled Krebs-bicarbonate buffer and filtered under vacuum with a cell harvester (Brandel, Gaithersburg, Md.). […] Radioactivity was measured by a liquid scintillation spectrophotometer. […]

[2] = system: norepinephrine uptake (rat cerebral cortex synaptosomes); assay: Synaptosomal uptake of 14C-l-norepinephrine (14C-NE), inhibition in vitro; type: biochemical, Male Sprague-Dawley rats; conditions: rat cortical synaptosomes, 37° C., 5 min, 100 nM 14C-NE
Experimental: as §1, §2, §3

For `CNCCC(Cc1ccccc1C)c1ccccc1` (stereo not shown) [Example 2, N-Methyl-3-phenyl-4-(2-methylphenyl)-butanaminium tosylate], the IC50 [1] was 0.33 µM and the IC50 [2] was 0.1 µM.
`CNCCC(Cc1ccc(C(F)(F)F)cc1)c1ccccc1` (stereo not shown) [Example 1, N-Methyl-3-phenyl-4-(4-trifluoromethylphenyl)-butanaminium chloride] gave an IC50 [1] of 0.25 µM and an IC50 [2] of 7.6 µM.
